Laboratory results reported in PMC6112750 (Oncotarget, 2018).

Target: T1, SUV39H2 (Homo sapiens, UniProt Q9H5I1)
T1 construct: N-terminal GST fused SUV39H2
Test: radiometric SPA methyltransferase assay with biotin-H3 ([…]-21) peptide and [3H]-SAM
Type: biochemical

T1 sequence (Q9H5I1 whole entry, the tested form may be a part): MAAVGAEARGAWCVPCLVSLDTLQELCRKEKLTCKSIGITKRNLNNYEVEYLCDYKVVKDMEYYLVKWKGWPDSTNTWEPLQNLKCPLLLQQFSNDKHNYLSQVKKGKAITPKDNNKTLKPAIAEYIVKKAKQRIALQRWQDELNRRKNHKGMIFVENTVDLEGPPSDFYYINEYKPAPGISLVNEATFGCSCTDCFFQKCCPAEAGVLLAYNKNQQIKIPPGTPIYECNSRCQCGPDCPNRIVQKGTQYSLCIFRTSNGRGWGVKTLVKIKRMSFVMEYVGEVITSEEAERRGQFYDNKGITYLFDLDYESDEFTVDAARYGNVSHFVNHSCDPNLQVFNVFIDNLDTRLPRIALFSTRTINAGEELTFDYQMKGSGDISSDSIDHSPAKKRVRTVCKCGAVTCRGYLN

COc1cc(OC)c(-c2cn3ccc(N[C@H]4CC[C@@H](NCc5ccc([N+](=O)[O-])cc5)CC4)cc3n2)cc1Cl [OTS193320, (1s,4s)-N^1-(2-(5-chloro-2,4-dimethoxyphenyl)imidazo[1,2-a]pyridin-7-yl)-N^4-(4-nitrobenzyl)cyclohexane-1,4-diamine]
IC50: 22.2 nM
